# Reference: ChEMBL document CHEMBL1201862, “PubChem BioAssay data set” (2004)
#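 Compound exposure: 48 hours, 5 concentrations, 96-well plates. GI50 marks 50% less growth.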 Active and inactive are the calls of the source. Cut-off read from the data, not from the text of the source: active = GI50 up to about 1.1 µM and inactive = higher.
# Tests used:
# Experiment in all cases: growth of human tumour cells (NCI), 48 h
# ACHN = system: ACHN
# HCT-116 = system: HCT-116
# HL-60 = system: HL-60
# IGROV-1 = system: IGROV-1
# LOX IMVI = system: LOX IMVI
# MDA-N = system: MDA-N
# NCI-H226 = system: NCI-H226
# NCI-H522 = system: NCI-H522
# NCI/ADR-RES = system: NCI/ADR-RES
# OVCAR-5 = system: OVCAR-5
# RPMI-8226 = system: RPMI-8226
# SF-268 = system: SF-268
# SF-539 = system: SF-539
# SK-MEL-2 = system: SK-MEL-2
# SNB-19 = system: SNB-19
# TK-10 = system: TK-10
# U-251 = system: U-251
# UACC-257 = system: UACC-257
SMILES,GI50 (ACHN),GI50 (HCT-116),GI50 (HL-60),GI50 (IGROV-1),GI50 (LOX IMVI),GI50 (MDA-N),GI50 (NCI-H226),GI50 (NCI-H522),GI50 (NCI/ADR-RES),GI50 (OVCAR-5),GI50 (RPMI-8226),GI50 (SF-268),GI50 (SF-539),GI50 (SK-MEL-2),GI50 (SNB-19),GI50 (TK-10),GI50 (U-251),GI50 (UACC-257)
Cc1ccc2c(O)cc(-c3ccccc3)nc2n1,0.845 µM (active),0.0507 µM (active),0.0255 µM (active),0.11 µM (active),0.116 µM (active),0.0106 µM (active),0.472 µM (active),0.0532 µM (active),0.0367 µM (active),2.56 µM (inactive),0.115 µM (active),1.56 µM (inactive),0.191 µM (active),0.103 µM (active),0.309 µM (active),0.12 µM (active),0.0875 µM (active),0.285 µM (active)
CC(C)N1CCN(c2ccncc2S(=O)(=O)N2CCCCC2)CC1,> 100 µM (inactive),> 100 µM (inactive),> 100 µM (inactive),> 100 µM (inactive),> 100 µM (inactive),> 100 µM (inactive),> 100 µM (inactive),> 100 µM (inactive),> 100 µM (inactive),> 100 µM (inactive),> 100 µM (inactive),> 100 µM (inactive),> 100 µM (inactive),> 100 µM (inactive),> 100 µM (inactive),> 100 µM (inactive),> 100 µM (inactive),> 100 µM (inactive)
S=C1/C(=N/c2ccccc2)N(c2ccccc2)/C(=N\c2ccccn2)N1c1ccccc1,4.32 µM (inactive),14.2 µM (inactive),> 100 µM (inactive),13.3 µM (inactive),6.61 µM (inactive),6.3 µM (inactive),18.2 µM (inactive),1.63 µM (inactive),16.7 µM (inactive),16.4 µM (inactive),6.78 µM (inactive),16.6 µM (inactive),< 0.01 µM (active),11.9 µM (inactive),16.3 µM (inactive),15.5 µM (inactive),15.8 µM (inactive),14.3 µM (inactive)
COc1ccc2[nH]c3c(C)c4ccnc(NCCCN(C)CCCNc5ccc6ncn7c8ccccc8c(=O)c5c67)c4c(C)c3c2c1,0.0598 µM (active),0.0767 µM (active),0.08 µM (active),0.158 µM (active),0.136 µM (active),0.411 µM (active),0.082 µM (active),0.0524 µM (active),0.664 µM (active),1.3 µM (inactive),0.13 µM (active),0.352 µM (active),0.132 µM (active),3.24 µM (inactive),0.752 µM (active),0.22 µM (active),0.134 µM (active),0.723 µM (active)
OCCOCCN1CCN(c2nc(N3CCCC3)c3nc(Cl)c(NCc4ccccc4)nc3n2)CC1,14 µM (inactive),12.8 µM (inactive),12.1 µM (inactive),18.3 µM (inactive),10.5 µM (inactive),10.3 µM (inactive),20.8 µM (inactive),15.4 µM (inactive),14.5 µM (inactive),15.1 µM (inactive),7.64 µM (inactive),16.5 µM (inactive),24.8 µM (inactive),17.5 µM (inactive),15.3 µM (inactive),12.4 µM (inactive),12 µM (inactive),14.1 µM (inactive)
O=c1[nH]cc(/C=N\Nc2ccccc2)c(=O)[nH]1,68.9 µM (inactive),> 100 µM (inactive),5.78 µM (inactive),> 100 µM (inactive),6.14 µM (inactive),> 100 µM (inactive),> 100 µM (inactive),> 100 µM (inactive),> 100 µM (inactive),> 100 µM (inactive),> 100 µM (inactive),> 100 µM (inactive),> 100 µM (inactive),> 100 µM (inactive),> 100 µM (inactive),> 100 µM (inactive),> 100 µM (inactive),> 100 µM (inactive)
CCN(CC)CCO/N=C1\CC[C@H]2[C@@H]3CC=C4C[C@@H](O)CC[C@]4(C)[C@H]3CC[C@]12C,35.8 µM (inactive),15.6 µM (inactive),9.77 µM (inactive),31.8 µM (inactive),16.5 µM (inactive),23 µM (inactive),15 µM (inactive),17.3 µM (inactive),26.1 µM (inactive),33 µM (inactive),16.9 µM (inactive),34 µM (inactive),13.6 µM (inactive),23.3 µM (inactive),31.4 µM (inactive),27.6 µM (inactive),14.4 µM (inactive),16.7 µM (inactive)
Cc1ccc(Nc2n[nH]c(NS(=O)(=O)c3cc(C)c(Cl)cc3S)n2)cc1,> 100 µM (inactive),> 100 µM (inactive),> 100 µM (inactive),> 100 µM (inactive),> 100 µM (inactive),> 100 µM (inactive),> 100 µM (inactive),> 100 µM (inactive),> 100 µM (inactive),> 100 µM (inactive),> 100 µM (inactive),> 100 µM (inactive),> 100 µM (inactive),> 100 µM (inactive),> 100 µM (inactive),> 100 µM (inactive),> 100 µM (inactive),> 100 µM (inactive)
O=C(O)C(Cc1ccccc1)Cc1ccccc1,> 100 µM (inactive),> 100 µM (inactive),> 100 µM (inactive),> 100 µM (inactive),> 100 µM (inactive),> 100 µM (inactive),> 100 µM (inactive),> 100 µM (inactive),> 100 µM (inactive),> 100 µM (inactive),> 100 µM (inactive),> 100 µM (inactive),> 100 µM (inactive),> 100 µM (inactive),> 100 µM (inactive),> 100 µM (inactive),> 100 µM (inactive),> 100 µM (inactive)
COc1ccc(/C=C(\C#N)c2nc(-c3cc4ccccc4oc3=O)cs2)cc1,19 µM (inactive),32.3 µM (inactive),> 100 µM (inactive),22.2 µM (inactive),30.5 µM (inactive),44.5 µM (inactive),31.6 µM (inactive),19.4 µM (inactive),27.2 µM (inactive),51.1 µM (inactive),42.9 µM (inactive),17.9 µM (inactive),21 µM (inactive),33.3 µM (inactive),16.4 µM (inactive),26.2 µM (inactive),13.5 µM (inactive),31.8 µM (inactive)
Cc1cccc(/C=N/NC(=S)N(C)CCc2ccccn2)n1,0.191 µM (active),0.256 µM (active),0.0429 µM (active),0.366 µM (active),0.207 µM (active),0.473 µM (active),0.39 µM (active),0.214 µM (active),0.269 µM (active),4.93 µM (inactive),0.104 µM (active),0.278 µM (active),0.407 µM (active),0.661 µM (active),0.729 µM (active),15.2 µM (inactive),0.347 µM (active),0.448 µM (active)
Cc1ccc([N+](=O)[O-])cc1S(=O)(=O)Nc1ccc(C(=O)/C=C/c2ccccc2)cc1,13.2 µM (inactive),15.7 µM (inactive),25.3 µM (inactive),18.7 µM (inactive),19 µM (inactive),20.2 µM (inactive),28.6 µM (inactive),20.2 µM (inactive),22 µM (inactive),25.6 µM (inactive),11.5 µM (inactive),24.3 µM (inactive),30.5 µM (inactive),19.1 µM (inactive),18.6 µM (inactive),31.3 µM (inactive),–,17.3 µM (inactive)
CC1(C)Oc2ccccc2OC1O (centres undefined),> 100 µM (inactive),> 100 µM (inactive),> 100 µM (inactive),> 100 µM (inactive),> 100 µM (inactive),> 100 µM (inactive),> 100 µM (inactive),> 100 µM (inactive),> 100 µM (inactive),> 100 µM (inactive),> 100 µM (inactive),> 100 µM (inactive),> 100 µM (inactive),> 100 µM (inactive),> 100 µM (inactive),> 100 µM (inactive),> 100 µM (inactive),> 100 µM (inactive)
CC1=C(O)C(=O)C=C2C1=CC=C1[C@@]2(C)CC[C@@]2(C)C3C[C@@H](C)C(=O)[C@@H](O)[C@]3(C)CC[C@]12C (some centres undefined),1.7 µM (inactive),1.72 µM (inactive),0.641 µM (active),1.73 µM (inactive),1.5 µM (inactive),1.69 µM (inactive),4.44 µM (inactive),1.05 µM (active),2.97 µM (inactive),4.23 µM (inactive),1.25 µM (inactive),3.38 µM (inactive),2.14 µM (inactive),5.05 µM (inactive),4.15 µM (inactive),1.84 µM (inactive),1.85 µM (inactive),2.83 µM (inactive)
O=C(NO)c1cccc(OCc2ccc(Br)cc2)c1,3.03 µM (inactive),4.35 µM (inactive),3.01 µM (inactive),3.35 µM (inactive),2.11 µM (inactive),9.02 µM (inactive),3.78 µM (inactive),1.41 µM (inactive),2.93 µM (inactive),12.6 µM (inactive),2.74 µM (inactive),4.03 µM (inactive),4.72 µM (inactive),11.3 µM (inactive),9.35 µM (inactive),10.5 µM (inactive),4.63 µM (inactive),10.5 µM (inactive)
